These results are taken from paper PMC7559210, “Verification of P-Glycoprotein Function at the Dermal Barrier in Diffusion Cells and Dynamic “Skin-On-A-Chip” Microfluidic Device” (Pharmaceutics, 2020).

One data set relates to P-gp. Details: method as in PMID 18725258. The conditions noted are these: in vivo penetration experiments; cited from earlier work.
The subject of data set [1] is P-glycoprotein. The format is in vitro ADME. On the procedure:
(§1) Excised skin samples of both young and aged rats were obtained in the same way. Animals were anaesthetized intraperitoneally with chloral hydrate using a dose of 400 mg/kg. Under anesthesia, the hair of the abdominal skin was shaved off with an electric shaver, then epilated by an epilator cream (ISANA® cream from Rossmann, Burgwedel, Germany). Finally, the skin surface was washed and wiped dry. The abdominal skin was then mechanically sensitized 10 times by tape stripping (10 TS) with leucoplast (BSN Medical GmbH, Hamburg, Germany) to remove the upper layers of dead keratinocytes. The removal of the upper skin layer of the stratum corneum by adhesive tape has become a common practice in recent decades. The determination of the kinetics and penetration depth of different drugs by creating concentration–time profiles is facilitated by the use of the noninvasive method of tape stripping. Tape stripping makes it easier to evaluate the bioequivalence of topical dermatological dosage forms, and also makes it possible to reach detectable concentrations in the dermis and subcutis in preclinical animal models. […] Following these skin preparations, an approximately 1-cm, full-thickness skin incision was made in the caudal part of the abdominal area using scissors. After the first cutting with blunt Metzen scissors, fat, connecting tissue and blood vessels were carefully removed. Then, there were two options for continuing with the preparations, as follows. (1) Fresh skin preparation: Six skin disc-preparations were made from the abdominal, tape-stripped skin (approximately 3 cm in diameter each) for Franz diffusion cell study, or three skin square-preparations (approx. 1.5 cm × 1.5 cm) for skin-on-a-chip experiments. The skin preparations were stored in PPF at room temperature until the initiation of experiments, and were then placed between the donor and acceptor chambers on the cells of the Franz diffusion system or on the chip device. The stratum corneum layer of the skin contacted the test drug formulation, facing the donor chamber, while the dermal/subcutaneous surface contacted the PPF in the acceptor compartments. (2) Frozen skin preparation: Freshly prepared, tape stripped skin preparations were wrapped in an aluminum foil and stored in a deep freezer at −80 °C until the diffusion experiments. On the day of the study, the skin preparations were thawed at room temperature, and then placed on the Franz diffusion cells/chip devices in a similar way as that described for fresh skin preparation.
Hanson 6-Cell Manual Diffusion Test System-type Franz diffusion cells were used in the experiments (Hanson, ABL&E-JASCO Hungary Kft, Budapest, Hungary).
In each unit of the system, there was a heated magnetic stirrer chamber (acceptor compartment), stirred by a helical mixer (Figure 1). A magnet was placed on the bottom of the chamber and the helical mixer was connected to it. The acceptor chambers of the diffusion cells were filled with PPF. […] The diffusion surface was 1.767 cm^2. In the final step, a glass lid was placed onto the donor chambers. In each experiment, six parallel units were used and three cells of them always had the same arrangement with the same conditions. The cells were connected by plastic tubes. In these plastic connectors, distilled water at 32 °C was circulated to mimic the physiological dermal temperature. […] First, 0.5 mL samples were taken every 30 min from the acceptor compartments. After each sample collection, the removed fluid volume was replaced with PPF. Altogether, 60 samples were taken in each experiment, i.e., 10 from each unit. The collected samples were immediately placed on dry ice and stored at −80 °C until bioanalysis.
The dwell time of the transitions was 300 msec. Source conditions were as follows.

The conditions of data set [2]: no source given; cited from earlier work.
Data set [3] concerns P-glycoprotein. The following applies: fresh young rat skin. On the procedure:
as §1, with “The stratum corneum layer of the skin contacted the test drug formulation, facing the donor chamber, while the dermal/subcutaneous surface contacted the PPF in the acceptor compartments. (2) Frozen skin preparation: Freshly prepared, tape stripped skin preparations were wrapped in an aluminum foil and stored in a deep freezer at −80 °C until the diffusion experiments. On the day of the study, the skin preparations were thawed at room temperature, and then placed on the Franz diffusion cells/chip devices in a similar way as that described for fresh skin preparation.” left out

Data set [4] relates to P-glycoprotein. The following applies: topical PSC-833; erythromycin creams.
Experimental: In the current study, a transdermal microdialysis technique was applied to investigate the skin penetration of test compounds through the dermal skin layer in anesthetized rats [24].
First, the epilation and shaving of the abdominal skin surface were performed under slight anesthesia, according to the protocol described in the ex vivo studies section.
The experiments were conducted the day after the skin preparation in order to eliminate the possible effect of the epilator cream and the dermal trauma caused by shaving. Animals were reanesthetized intraperitoneally with chloral hydrate with a dose of 400 mg/kg, and fixed in a supine position. In order to keep their body temperature at 37 °C during the experiment, they were placed on a heating pad. The abdominal skin was wiped dry and mechanically sensitized 10 times by tape-stripping with leucoplast (BSN Medical GmbH, Hamburg, Germany).
Two microdialysis probes (MAB11.8.10, Microbiotech, Stockholm, Sweden) were introduced in parallel at a distance of 2 cm through a guide needle (18G) into the dermal tissue. After the withdrawal of the guide needle, the probe membrane stayed in the dermal tissue, the position of which was previously verified by ultrasonic scanning. Probes were then fixed carefully with tape (Omnisilk, Hartmann, Germany).

As to rhodamine, in the data set with P-gp, the “drug distribution in the skin after topical application with lack of or inhibition of P-gp” value is given as “decreased drug distributions therein”.
With `CC[C@H]1OC(=O)[C@H](C)[C@@H](O[C@H]2C[C@@](C)(OC)[C@@H](O)[C@H](C)O2)[C@H](C)[C@@H](O[C@@H]2O[C@H](C)C[C@H](N(C)C)[C@H]2O)[C@](C)(O)C[C@@H](C)C(=O)[C@H](C)[C@@H](O)[C@]1(C)O` [erythromycin, Erythromycin], in the data set on P-glycoprotein [1] (2% ERY cream), the “diffusion through frozen/thawed vs fresh skin” value was “enhanced compared to fresh skins” and the “permeability in aged vs young skin” value was “increased in the aged skin samples”. For the same molecule, in data set [2], the “logP (lipophilicity)” value is recorded as 3.06. In the data set with P-glycoprotein [3] (2% suspension cream), the “dynamics of absorption in the 270-min observation period” value was “only the absorption phase could be reached, or the plateau was initiated”. In the data set on P-glycoprotein [4], the “effect of P-gp modulation on drug absorption in vivo” value is listed as “moderate but reproducible reduction in drug absorption”.
`C/C=C/C[C@@H](C)C(=O)[C@H]1C(=O)N[C@@H](C(C)C)C(=O)N(C)CC(=O)N(C)[C@@H](CC(C)C)C(=O)N[C@@H](C(C)C)C(=O)N(C)[C@@H](CC(C)C)C(=O)N[C@@H](C)C(=O)N[C@H](C)C(=O)N(C)[C@@H](CC(C)C)C(=O)N(C)[C@@H](CC(C)C)C(=O)N(C)[C@@H](C(C)C)C(=O)N1C` [PSC-833, valspodar]: in the data set on P-glycoprotein [1] (fresh skins, young and aged, 2% ERY cream, PSC-833 1 mg/mL DMSO, 100 μL, 10 min before, ANOVA, Tukey test), the “effect of PSC-833 pretreatment on erythromycin permeability (AUC)” value is listed as “significant effect on permeability”. Further, the “effect of PSC-833 pretreatment on quinidine permeability (AUC)” value in the data set with P-glycoprotein [1] (fresh skins, young and aged, 2% QND cream, ANOVA, Tukey test) is “statistically relevant effect only on aged subjects”. Also, the “effect of P-gp inhibitor on erythromycin absorption” value in the data set on P-glycoprotein [1] (frozen aged skin, 2% ERY cream) is recorded as “opposite effect”.
On to `CCC(C)n1ncn(-c2ccc(N3CCN(c4ccc(OCC5COC(Cn6cncn6)(c6ccc(Cl)cc6Cl)O5)cc4)CC3)cc2)c1=O` (stereo not shown) [itraconazole], for which the “drug distribution in the skin after topical application with lack of or inhibition of P-gp” value in the data set with P-gp is “decreased drug distributions therein”.
Turning to `C=C[C@H]1C[N@@]2CC[C@H]1C[C@@H]2[C@@H](O)c1ccnc2ccc(OC)cc12` [quinidine], the “permeability of the controls, aged vs young skin” value in the data set with P-glycoprotein [1] (fresh skins, DMSO pretreated, 2% QND cream) is “independent of age”. In addition, in the data set on P-glycoprotein [3] (2% gel, PSC-833 pretreatment), the “effect of P-gp inhibition on transdermal delivery” value is listed as “dramatic reduction in transdermal delivery”. The “plateau phase of skin penetration profile” value with P-glycoprotein [3] (2% gel, flow 4 μL/min) lay within 90 to 180 min.
